Experimental findings from US12673936B2, “Isoindolinone compounds, and uses thereof” (HANGZHOU GLUBIO PHARMACEUTICAL CO., LTD., priority 2021, dated 2026) are described below.

For test [1], the target named is HiBiT tagged CK1α (Homo sapiens, UniProt P48729+Q96SW2). Kind of test: CK1α degradation assay (HiBiT assay). As to conditions: 20 hours; for Dmax: HT-1080, HT-1080 cells; for Dmax / HiBiT CK1α: Dmax: maximum CK1α degradation; for DC50 / HiBiT CK1α: Dmax: HT-1080 cells; for DC50: concentration at 50% CK1α degradation. In kind it is cell-based. The method, then:
(§1) CK1α and GSPT1 Degradation Assay (HiBiT Assay) The following is an example of an assay that can be used to determine the dose-dependent CK1α and GSPT1 degradation activities of test compounds in a human cell line such as HT-1080 ([…]). HT-1080 cells stably overexpressing wild-type CRBN, GSPT1A(1-138)/G575N mutant and HiBiT tagged CK1α or GSPT1 were seeded into 384-well plates (Cat #3764, Corning) pre-spotted with DMSO or test compounds. Increasing concentrations of test compounds (ranging from 3.162×10^-4 μM to 10 μM at a 3.16-fold increment) or DMSO were dispensed into an empty 384-well plate using an Echo Acoustic Liquid Handler (Beckman Coulter). About 10,000 cells in complete DMEM cell culture media were seeded per well. […] Luminescence was then measured with an EnVision plate reader (PerkinElmer) or a PHERAstar plate reader (BMG Labtech). All CK1α or GSPT1 degradation curves were processed using Collaborative Drug Discovery Vault softwares (Burlingame, CA., www.collaborativedrug.com). CK1α or GSPT1 levels in compound-treated wells were normalized to that of DMSO control and expressed as Percent of Control (PoC, y). […]
(HiBiT is a short tag that completes a luciferase, so light tracks the accessible tagged protein.)

Test [2] has as its target HiBiT tagged GSPT1 (Homo sapiens, UniProt P15170+Q96SW2). Kind of test: GSPT1 degradation assay (HiBiT assay). The conditions noted are these: 20 hours, maximum GSPT1 degradation; for Dmax: HT-1080, HT-1080 cells; for HiBiT GSPT1: Dmax: HT-1080 cells. The format is cell-based. The method, then: as §1

Chain of HiBiT tagged CK1α (P48729 whole entry): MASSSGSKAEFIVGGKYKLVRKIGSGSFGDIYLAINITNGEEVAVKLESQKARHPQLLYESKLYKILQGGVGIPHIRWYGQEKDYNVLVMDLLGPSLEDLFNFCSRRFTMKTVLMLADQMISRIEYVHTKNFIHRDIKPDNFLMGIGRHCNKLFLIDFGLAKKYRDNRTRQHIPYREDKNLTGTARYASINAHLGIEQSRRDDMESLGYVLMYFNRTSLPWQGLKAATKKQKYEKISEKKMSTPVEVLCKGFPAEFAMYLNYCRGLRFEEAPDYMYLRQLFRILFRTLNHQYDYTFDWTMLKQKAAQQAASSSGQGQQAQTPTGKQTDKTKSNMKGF
Chain of HiBiT tagged CK1α (Q96SW2 whole entry): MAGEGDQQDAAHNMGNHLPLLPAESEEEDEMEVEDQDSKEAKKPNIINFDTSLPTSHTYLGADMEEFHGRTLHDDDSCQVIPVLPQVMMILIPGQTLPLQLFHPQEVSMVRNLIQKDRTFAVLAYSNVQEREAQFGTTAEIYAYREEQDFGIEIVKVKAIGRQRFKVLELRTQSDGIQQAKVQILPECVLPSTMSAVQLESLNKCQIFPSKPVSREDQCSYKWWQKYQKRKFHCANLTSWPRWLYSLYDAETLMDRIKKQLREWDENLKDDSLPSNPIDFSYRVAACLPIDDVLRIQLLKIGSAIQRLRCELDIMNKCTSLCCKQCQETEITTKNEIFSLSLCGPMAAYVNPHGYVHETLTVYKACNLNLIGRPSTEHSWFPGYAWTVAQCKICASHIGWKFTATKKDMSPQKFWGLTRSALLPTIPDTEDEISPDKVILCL
Chain of HiBiT tagged CK1α (Q16531 whole entry partner): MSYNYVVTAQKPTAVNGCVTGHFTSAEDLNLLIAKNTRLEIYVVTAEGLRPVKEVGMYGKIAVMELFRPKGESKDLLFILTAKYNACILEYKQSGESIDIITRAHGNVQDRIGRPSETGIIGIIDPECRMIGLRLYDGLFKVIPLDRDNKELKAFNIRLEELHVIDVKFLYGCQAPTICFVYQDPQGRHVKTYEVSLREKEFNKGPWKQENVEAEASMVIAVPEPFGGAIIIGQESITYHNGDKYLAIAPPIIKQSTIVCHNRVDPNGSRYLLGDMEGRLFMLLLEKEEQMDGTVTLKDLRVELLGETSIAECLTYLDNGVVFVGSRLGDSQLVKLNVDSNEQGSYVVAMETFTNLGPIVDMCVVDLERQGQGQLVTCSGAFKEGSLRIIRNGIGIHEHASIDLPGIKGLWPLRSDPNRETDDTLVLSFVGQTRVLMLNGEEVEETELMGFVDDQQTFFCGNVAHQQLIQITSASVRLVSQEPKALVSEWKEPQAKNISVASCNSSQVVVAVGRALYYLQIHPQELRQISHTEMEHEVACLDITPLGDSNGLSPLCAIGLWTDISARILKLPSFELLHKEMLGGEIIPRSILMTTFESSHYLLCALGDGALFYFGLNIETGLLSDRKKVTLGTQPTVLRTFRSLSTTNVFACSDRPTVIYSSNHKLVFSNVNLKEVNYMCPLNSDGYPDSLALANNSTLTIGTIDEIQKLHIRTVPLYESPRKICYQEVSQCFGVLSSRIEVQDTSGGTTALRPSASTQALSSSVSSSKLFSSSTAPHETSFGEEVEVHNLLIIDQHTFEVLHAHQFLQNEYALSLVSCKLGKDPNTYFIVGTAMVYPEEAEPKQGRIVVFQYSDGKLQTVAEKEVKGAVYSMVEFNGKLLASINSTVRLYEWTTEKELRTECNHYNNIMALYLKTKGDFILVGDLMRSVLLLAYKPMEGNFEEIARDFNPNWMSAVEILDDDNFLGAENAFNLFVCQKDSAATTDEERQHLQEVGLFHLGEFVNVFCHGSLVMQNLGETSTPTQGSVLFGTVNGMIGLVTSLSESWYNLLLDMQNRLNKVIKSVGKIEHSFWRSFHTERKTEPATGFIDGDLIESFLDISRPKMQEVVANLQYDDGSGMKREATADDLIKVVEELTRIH
Chain of HiBiT tagged GSPT1 (P15170 whole entry): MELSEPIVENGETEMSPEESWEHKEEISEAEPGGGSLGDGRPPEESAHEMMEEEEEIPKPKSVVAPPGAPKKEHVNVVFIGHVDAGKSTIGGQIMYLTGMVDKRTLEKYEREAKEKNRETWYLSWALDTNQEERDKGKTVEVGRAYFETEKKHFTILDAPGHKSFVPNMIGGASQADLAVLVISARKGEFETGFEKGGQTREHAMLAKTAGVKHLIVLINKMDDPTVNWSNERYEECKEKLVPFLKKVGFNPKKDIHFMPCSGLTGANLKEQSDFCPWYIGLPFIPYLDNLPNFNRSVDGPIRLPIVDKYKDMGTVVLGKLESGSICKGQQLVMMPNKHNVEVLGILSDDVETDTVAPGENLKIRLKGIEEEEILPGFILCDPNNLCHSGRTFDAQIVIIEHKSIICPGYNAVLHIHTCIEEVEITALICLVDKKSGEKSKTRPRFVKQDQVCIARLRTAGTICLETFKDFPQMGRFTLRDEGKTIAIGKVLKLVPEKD
Chain of HiBiT tagged GSPT1 (Q96SW2 whole entry): as the sequence (Q96SW2 whole entry) above
Chain of HiBiT tagged GSPT1 (Q16531 whole entry partner): as the sequence (Q16531 whole entry partner) above

Broadly, the Dmax is the greatest extent of degradation seen. One may read the DC50 as the concentration at which degradation of the target reaches its halfway point. The low end stands for a more potent degrader, the high end for a less potent degrader. As to `O=C1CCC(N2Cc3cc(C(=O)NC(c4ccc(F)cc4F)C4CC4)ccc3C2=O)C(=O)N1` (centres unmarked) [Compound 1, N-(cyclopropyl(2,4-difluorophenyl)methyl)-2-(2,6-dioxopiperidin-3-yl)-1-oxoisoindoline-5-carboxamide], in test [1], the Dmax came to 66.2% and the half-maximal degradation concentration (DC50) turned out to be 0.221 µM. The compound further registered a maximal degradation (Dmax) in test [2] of 37%.
On to `O=C1CCC(N2Cc3cc(C(=O)N[C@H](c4ncccc4Cl)C4CCC4)ccc3C2=O)C(=O)N1` (stereo in doubt) [Compound 18, N-((*S)-(3-chloropyridin-2-yl)(cyclobutyl)methyl)-2-(2,6-dioxopiperidin-3-yl)-1-oxoisoindoline-5-carboxamide], for which the Dmax in test [1] stood at 66%; in test [2], 58.5%. This compound also yielded a DC50 in test [1] of 0.137 µM.
The matching figures for `O=C1CCC(N2Cc3cc(C(=O)N[C@@H](c4cccc(C(F)(F)F)c4)C4CC4)ccc3C2=O)C(=O)N1` (stereo in doubt) [Compound 33, N-((*R)-cyclopropyl(3-(trifluoromethyl)phenyl)methyl)-2-(2,6-dioxopiperidin-3-yl)-1-oxoisoindoline-5-carboxamide]: 56.3%, 66.3% and 1.3 µM.
On the same counts, the results for `O=C1CCC(N2Cc3cc(C(=O)NC(c4ccc(F)c(F)c4)C4CCC4)ccc3C2=O)C(=O)N1` (centres unmarked) [Compound 40, N-(cyclobutyl(3,4-difluorophenyl)methyl)-2-(2,6-dioxopiperidin-3-yl)-1-oxoisoindoline-5-carboxamide] are 57.5%, 30.6% and 0.416 µM.
Regarding `O=C1CCC(N2Cc3cc(C(=O)N[C@H](c4c(F)cccc4F)C4CC4)ccc3C2=O)C(=O)N1` (stereo in doubt) [Compound 17, N-((*S)-cyclopropyl(2,6-difluorophenyl)methyl)-2-(2,6-dioxopiperidin-3-yl)-1-oxoisoindoline-5-carboxamide], the maximal degradation (Dmax) in test [1] came to 68.1%; in test [2], 49.3%. In addition, the 50% degradation concentration (DC50) in test [1] came to 0.123 µM.
As for `O=C1CC[C@H](N2Cc3cc(C(=O)N[C@H](c4ccc(F)cc4)C4CCCC4)ccc3C2=O)C(=O)N1` (racemic) [Compound 60, N-((*R)-cyclopentyl(4-fluorophenyl)methyl)-2-((S)-2,6-dioxopiperidin-3-yl)-1-oxoisoindoline-5-carboxamide], in test [1], the DC50 was less than 0.0471 µM and the “HiBiT CK1α: Dmax” value was 49%. In test [2], this compound returned a Dmax of 27.4%.
As for `O=C1CCC(N2Cc3cc(C(=O)N[C@H](c4cccc(C(F)(F)F)c4)C4CC4)ccc3C2=O)C(=O)N1` (stereo in doubt) [Compound 34, N-((*S)-cyclopropyl(3-(trifluoromethyl)phenyl)methyl)-2-(2,6-dioxopiperidin-3-yl)-1-oxoisoindoline-5-carboxamide], in test [1], the maximal degradation (Dmax) was 59.5% and half-maximal degradation (DC50) was put at 0.446 µM. This compound returned a maximal degradation (Dmax) in test [2] of 25.8%.
In test [1], `O=C1CCC(N2Cc3cc(C(=O)N[C@@H](c4cccc(F)c4)C4CC4)ccc3C2=O)C(=O)N1` (stereo in doubt) [Compound 25, N-((*R)-cyclopropyl(3-fluorophenyl)methyl)-2-(2,6-dioxopiperidin-3-yl)-1-oxoisoindoline-5-carboxamide] displayed a Dmax of 54.5% and a half-maximal degradation concentration (DC50) of 1.58 µM. This compound yielded a Dmax in test [2] of 48.4%.
The matching figures for `Cc1ccccc1[C@@H](NC(=O)c1ccc2c(c1)CN(C1CCC(=O)NC1=O)C2=O)C1CC1` (stereo in doubt) [Compound 39, N-((*S)-cyclopropyl(o-tolyl)methyl)-2-(2,6-dioxopiperidin-3-yl)-1-oxoisoindoline-5-carboxamide]: 61%, 0.363 µM and 32.5%.
In the case of `N#Cc1cccc(C(NC(=O)c2ccc3c(c2)CN(C2CCC(=O)NC2=O)C3=O)C2CC2)c1` (centres unmarked) [Compound 44, N-((3-cyanophenyl)(cyclopropyl)methyl)-2-(2,6-dioxopiperidin-3-yl)-1-oxoisoindoline-5-carboxamide], the greatest degradation seen (Dmax) was 49.5% in test [1] and 22.5% in test [2].
On to `O=C1CCC(N2Cc3cc(C(=O)N[C@H](c4ncccc4F)C4(F)CCC4)ccc3C2=O)C(=O)N1` (stereo in doubt) [Compound 88, 2-(2,6-dioxopiperidin-3-yl)-N-((*R)-(1-fluorocyclobutyl)(3-fluoropyridin-2-yl)methyl)-1-oxoisoindoline-5-carboxamide], for which, in test [1], the greatest degradation seen (Dmax) is 55.4% and the DC50 worked out at 0.394 µM. The same compound had a Dmax in test [2] of 14.9%.
Take `O=C1CCC(N2Cc3cc(C(=O)N[C@H](c4c(F)cccc4Cl)C4CCC4)ccc3C2=O)C(=O)N1` (stereo in doubt) [Compound 69, N-((*S)-(2-chloro-6-fluorophenyl)(cyclobutyl)methyl)-2-(2,6-dioxopiperidin-3-yl)-1-oxoisoindoline-5-carboxamide]: in test [1], half-maximal degradation (DC50) was put at 0.0627 µM and the “HiBiT CK1α: Dmax” value was 74%. The “HiBiT GSPT1: Dmax” value in test [2] is 26%.
As to `O=C1CCC(N2Cc3cc(C(=O)N[C@H](c4ccc(F)cc4)C4(O)CC4)ccc3C2=O)C(=O)N1` (stereo partly drawn) [Compound 65, 2-(2,6-dioxopiperidin-3-yl)-N—((R)-(4-fluorophenyl)(1-hydroxycyclopropyl)methyl)-1-oxoisoindoline-5-carboxamide], in test [1], the Dmax amounted to 59.6% and the DC50 stood at 0.721 µM. In test [2], the greatest degradation seen (Dmax) came to 23.1%.
`O=C1CC[C@@H](N2Cc3cc(C(=O)N[C@H](c4ccc(F)cc4Cl)C4CCC4)ccc3C2=O)C(=O)N1` (racemic) [Compound 52, N-((*S)-(2-chloro-4-fluorophenyl)(cyclobutyl)methyl)-2-((*R)-2,6-dioxopiperidin-3-yl)-1-oxoisoindoline-5-carboxamide]: in test [1], half-maximal degradation (DC50) was put at 0.095 µM and the “HiBiT CK1α: Dmax” value is reported as 73.9%. The “HiBiT GSPT1: Dmax” value in test [2] is 28.5%.
In test [1], `O=C1CCC(N2Cc3cc(C(=O)NC(c4ccc(Cl)cc4F)C4CC4)ccc3C2=O)C(=O)N1` (centres unmarked) [Compound 14, N-((4-chloro-2-fluorophenyl)(cyclopropyl)methyl)-2-(2,6-dioxopiperidin-3-yl)-1-xoisoindoline-5-carboxamide] displayed a Dmax of 67.1% and a DC50 of 0.284 µM. The Dmax in test [2] is 45.5%.
Regarding `O=C1CCC(N2Cc3cc(C(=O)N[C@@H](c4ccc(F)cc4Cl)C4CCC4)ccc3C2=O)C(=O)N1` (stereo in doubt) [Compound 72, N-((*R)-(2-chloro-4-fluorophenyl)(cyclobutyl)methyl)-2-(2,6-dioxopiperidin-3-yl)-1-oxoisoindoline-5-carboxamide], the Dmax was 65.5% in test [1] and 45.2% in test [2]. This compound had a DC50 in test [1] of 0.132 µM.
The matching figures for `O=C1CCC(N2Cc3cc(C(=O)NC(c4ccc(F)cc4Cl)C4CCC4)ccc3C2=O)C(=O)N1` (centres unmarked) [Compound 19, N-((2-chloro-4-fluorophenyl)(cyclobutyl)methyl)-2-(2,6-dioxopiperidin-3-yl)-1-oxoisoindoline-5-carboxamide]: 69.6%, 43% and 0.0659 µM.
On the same counts, the results for `O=C1CCC(N2Cc3cc(C(=O)N[C@H](c4ccc(Cl)cc4)C4CC4)ccc3C2=O)C(=O)N1` (stereo in doubt) [Compound 3, N—((*S)-(4-chlorophenyl)(cyclopropyl)methyl)-2-(2,6-dioxopiperidin-3-yl)-1-oxoisoindoline-5-carboxamide] are 50.6%, 73.1% and 5.19 µM.
As for `O=C1CCC(N2Cc3cc(C(=O)N[C@@H](c4ccc(F)cc4Cl)C4CC4)ccc3C2=O)C(=O)N1` (stereo in doubt) [Compound 74, N-((*R)-(2-chloro-4-fluorophenyl)(cyclopropyl)methyl)-2-(2,6-dioxopiperidin-3-yl)-1-oxoisoindoline-5-carboxamide], in test [1], the greatest degradation seen (Dmax) is 59.2% and the DC50 is 0.233 µM. Moreover, the maximal degradation (Dmax) in test [2] is 62.3%.
On the same counts, the results for `O=C1CCC(N2Cc3cc(C(=O)N[C@@H](c4cccc(Cl)c4)C4CCC4)ccc3C2=O)C(=O)N1` (stereo in doubt) [Compound 68, N-((3-chlorophenyl)(cyclobutyl)methyl)-2-(2,6-dioxopiperidin-3-yl)-1-oxoisoindoline-5-carboxamide] are 55.4%, 0.789 µM and 48.3%.
Turning to `O=C1CC[C@H](N2Cc3cc(C(=O)N[C@H](c4ccc(F)cc4)C4CCCC4)ccc3C2=O)C(=O)N1` (racemic) [Compound 63, N-((*S)-cyclopentyl(4-fluorophenyl)methyl)-2-((S)-2,6-dioxopiperidin-3-yl)-1-oxoisoindoline-5-carboxamide], in test [1], half-maximal degradation (DC50) was put at 0.0535 µM and the “HiBiT CK1α: Dmax” value was 72.2%. Further, the “HiBiT GSPT1: Dmax” value in test [2] was determined as 29%.
With `O=C1CC[C@H](N2Cc3cc(C(=O)N[C@H](c4ccc(F)c(F)c4)C4CCC4)ccc3C2=O)C(=O)N1` (racemic) [Compound 46, N-((*R)-cyclobutyl(3,4-difluorophenyl)methyl)-2-((*S)-2,6-dioxopiperidin-3-yl)-1-oxoisoindoline-5-carboxamide], the figures for the Dmax in test [1] and in test [2] were 54.6% and 32.4%, respectively. In test [1], this compound registered a 50% degradation concentration (DC50) of 1.3 µM.
